Test results published in patent US20240360142A1, “Multitargeting Agents For The Potential Treatment of Dementia With Lewy Bodies, Parkinson's Disease, and Alzheimer Disease With Lewy Bodies” (Duquesne University of The Holy Spirit, priority 2023, published 2024).
Values after ≈ are worked out from the molar mass of the structure shown. Values joined by “and” are separate entries in the source; they are usually repeats but may differ in a detail not shown here. Equal entries are not always repeated. “Also recorded” adds a separate entry of the source. Where two headings read alike, the source gives them in different places.

What was measured:
ABL1 = ABL1 (Homo sapiens, UniProt P00519); test: Kinase inhibition, ABL1; format: biochemical
From the text: (§1) Total inhibition of these kinases would be detrimental to neuronal viability.

CSNK1A1 (CK1 alpha 1) = CSNK1A1 (CK1 alpha 1) (Homo sapiens, UniProt P48729); test: Kinase inhibition, CSNK1A1; format: biochemical
From the text: as §1

CSNK2A2 (CK2 alpha 2) = CSNK2A2 (CK2 alpha 2) (Homo sapiens, UniProt P19784); test: Kinase inhibition, CSNK2A2; format: biochemical; conditions: ATP Km app 46 μM
From the text: as §1

DYRK1A = DYRK1A (Homo sapiens, UniProt Q13627); test: Kinase inhibition, DYRK1A; format: biochemical; conditions: ATP Km app 99.7 μM
From the text: as §1

FYN = FYN (Homo sapiens, UniProt P06241); test: Kinase inhibition, FYN; format: biochemical
From the text: as §1

GRK5 = GRK5 (Homo sapiens, UniProt P34947); test: Kinase inhibition, GRK5; format: biochemical; conditions: ATP Km app 3 μM
From the text: as §1

GRK6 = GRK6 (Homo sapiens, UniProt P43250); test: Kinase inhibition, GRK6; format: biochemical; conditions: ATP Km app 11.7 μM
From the text: as §1

GSK3β = GSK3β (Homo sapiens, UniProt P49841); test: Kinase inhibition, GSK3β; format: biochemical
From the text: as §1

LARK2 = LARK2 (Homo sapiens, UniProt Q5S007); test: Kinase inhibition, LARK2; format: biochemical; also: ATP Km app 70 µM
From the text: as §1

PLK2 = PLK2 (Homo sapiens, UniProt Q9NYY3); test: Kinase inhibition, PLK2; format: biochemical; conditions: ATP Km app 29.6 μM
From the text: as §1

Solubility = format: physicochemical; conditions: simulated gastric fluid; pH 2.0
[1] = Protein Binding, Human Plasma; format: in vitro ADME; conditions: read-out: Protein Binding % Bound (converted)
[2] = Protein Binding, Mouse Plasma; format: in vitro ADME; conditions: read-out: Protein Binding % Bound (converted)
[3] = Brain Tissue Binding, Mouse; format: in vitro ADME; conditions: read-out: Brain Tissue Binding % Bound (converted)
[4] = Metabolic Stability, Human; format: in vitro ADME; conditions: for half-life: read-out: Metabolic Stability T1/2
[5] = Metabolic Stability, Mouse; format: in vitro ADME; conditions: for half-life: read-out: Metabolic Stability T1/2
Permeability, MDC-MDR1 = format: in vitro ADME; conditions: MDCK-MDR1
in vivo = test: in vivo; design: species or system male CD-1 mice; conditions: for clinical symptoms during pharmacokinetic work: mouse
Method: Briefly, each compound was administered through intravenous and oral routes, and plasma samplings were collected from 2 to 24 hours post-injection for analyses by high-performance liquid chromatography and mass spectrometry (Prominence (Degasser DGU-20A5R(C), Serial NO. L20705619752 IX; Liquid Chromatograph LC-30AD Serial NO. L20555611120 AE and L20555611116 AE; Communications Bus Module CBM-20A, Serial NO. L20235635001 CD, Auto SIL-20AC HT, Serial No. L20355305356 AE; Rack changer II, Serial No. L20585300757 SS; AB Sciex Triple Quan 5500 LC/MS/MS instrument (Serial NO. EF20711807)). A HALO 90A, C18 2.7 μm 2.1×50 mm USKL004340 column was used and the mobile phase was 5 or 95% acetonitrile in water with 0.1% formic acid (see Supplemental Material).

[6] = test system: primary hippocampal cultures; test: Viability / toxicity in primary hippocampal cultures; format: cell-based
From the text: Thresholds were kept uniform across individual experiments.

[7] = test system: βIII-tubulin+ structures in primary hippocampal neurons; test: Nocodazole shock treatment followed by cold methanol fixation, βIII-tubulin staining; format: cell-based, rat; conditions: AG161-47 8 μM; nocodazole 50 nM and 5 μM
Method: For cold methanol fixation, primary hippocampal cultures plated on glass slides were exposed to ice-cold methanol (−20° C.) for 15 minutes on DIV 4. […] After immunostaining, coverslips were applied using FluoroMount-G (0100-01, SouthernBiotech).
The microtubule destabilizer/depolymerizer and kinase inhibitor nocodazole blocks AG161-47 activity: We qualitatively compared AG161-47 with the established microtubule destabilizer/depolymerizer nocodazole (Baas & Black, 1990; Baas et al., 2016; Bates & Eastman, 2017; Kapellos et al., 2016; Koenigsknecht & Landreth, 2004; Kuhn, 1998; Mandrekar et al., 2009; Nakayama et al., 2012; Park et al., 2012), using a nocodazole shock treatment followed by cold methanol fixation in primary hippocampal cultures, as previously described (Ferreira et al., 2018; Warren et al., 2020). Primary hippocampal cultures were treated with vehicle or AG161-47 at 8 μM or nocodazole at 50 nM and 5 μM.

[8] = test system: male CD-1 mice infused with preformed α-synuclein fibrils; test: In vivo model of limbic-centered Lewy body disease (fibril infusion in OB/AON, daily tablets for six weeks); design: species or system mouse
[9] = molecular target: T1, tubulin purified from porcine brain (Sus scrofa, UniProt P02550+P02554); conditions: cited from earlier work
T1 construct: in vitro assembly of tubulin purified from porcine brain; from tissue; host or cells: porcine brain

[10] = test system: microtubules in HeLa cells; conditions: cited from earlier work
[11] = test system: α-tubulin (detyrosinated, tyrosinated, acetylated); test: Post-translational markers of microtubule stability in primary hippocampal cultures (immunoblotting); format: cell-based, rat; conditions: 5 nM nocodazole, in the presence of fibrils

Chain of CSNK1A1 (CK1 alpha 1) (P48729 whole entry): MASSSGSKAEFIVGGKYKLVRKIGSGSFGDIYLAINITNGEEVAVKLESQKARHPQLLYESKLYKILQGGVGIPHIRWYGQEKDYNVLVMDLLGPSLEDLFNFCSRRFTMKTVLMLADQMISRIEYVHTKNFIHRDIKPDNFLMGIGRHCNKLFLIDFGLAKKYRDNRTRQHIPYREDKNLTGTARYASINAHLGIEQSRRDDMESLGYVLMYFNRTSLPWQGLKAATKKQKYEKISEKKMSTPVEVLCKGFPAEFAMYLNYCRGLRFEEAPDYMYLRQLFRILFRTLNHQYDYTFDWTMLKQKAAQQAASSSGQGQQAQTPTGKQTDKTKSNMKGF
Chain of FYN (P06241 whole entry): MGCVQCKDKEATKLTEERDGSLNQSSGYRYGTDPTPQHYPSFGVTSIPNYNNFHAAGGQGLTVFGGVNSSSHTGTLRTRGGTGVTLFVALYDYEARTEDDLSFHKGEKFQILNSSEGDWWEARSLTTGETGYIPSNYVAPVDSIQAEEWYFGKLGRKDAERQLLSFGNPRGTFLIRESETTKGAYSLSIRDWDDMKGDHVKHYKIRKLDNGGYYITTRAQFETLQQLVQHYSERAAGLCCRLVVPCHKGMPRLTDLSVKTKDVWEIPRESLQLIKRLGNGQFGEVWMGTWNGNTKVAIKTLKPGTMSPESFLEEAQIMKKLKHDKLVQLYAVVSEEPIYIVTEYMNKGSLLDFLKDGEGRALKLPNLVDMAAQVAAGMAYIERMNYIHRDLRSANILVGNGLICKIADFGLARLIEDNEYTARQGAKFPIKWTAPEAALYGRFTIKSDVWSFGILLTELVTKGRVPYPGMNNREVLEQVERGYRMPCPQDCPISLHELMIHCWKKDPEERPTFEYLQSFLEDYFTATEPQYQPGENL
Chain of ABL1 (P00519 whole entry): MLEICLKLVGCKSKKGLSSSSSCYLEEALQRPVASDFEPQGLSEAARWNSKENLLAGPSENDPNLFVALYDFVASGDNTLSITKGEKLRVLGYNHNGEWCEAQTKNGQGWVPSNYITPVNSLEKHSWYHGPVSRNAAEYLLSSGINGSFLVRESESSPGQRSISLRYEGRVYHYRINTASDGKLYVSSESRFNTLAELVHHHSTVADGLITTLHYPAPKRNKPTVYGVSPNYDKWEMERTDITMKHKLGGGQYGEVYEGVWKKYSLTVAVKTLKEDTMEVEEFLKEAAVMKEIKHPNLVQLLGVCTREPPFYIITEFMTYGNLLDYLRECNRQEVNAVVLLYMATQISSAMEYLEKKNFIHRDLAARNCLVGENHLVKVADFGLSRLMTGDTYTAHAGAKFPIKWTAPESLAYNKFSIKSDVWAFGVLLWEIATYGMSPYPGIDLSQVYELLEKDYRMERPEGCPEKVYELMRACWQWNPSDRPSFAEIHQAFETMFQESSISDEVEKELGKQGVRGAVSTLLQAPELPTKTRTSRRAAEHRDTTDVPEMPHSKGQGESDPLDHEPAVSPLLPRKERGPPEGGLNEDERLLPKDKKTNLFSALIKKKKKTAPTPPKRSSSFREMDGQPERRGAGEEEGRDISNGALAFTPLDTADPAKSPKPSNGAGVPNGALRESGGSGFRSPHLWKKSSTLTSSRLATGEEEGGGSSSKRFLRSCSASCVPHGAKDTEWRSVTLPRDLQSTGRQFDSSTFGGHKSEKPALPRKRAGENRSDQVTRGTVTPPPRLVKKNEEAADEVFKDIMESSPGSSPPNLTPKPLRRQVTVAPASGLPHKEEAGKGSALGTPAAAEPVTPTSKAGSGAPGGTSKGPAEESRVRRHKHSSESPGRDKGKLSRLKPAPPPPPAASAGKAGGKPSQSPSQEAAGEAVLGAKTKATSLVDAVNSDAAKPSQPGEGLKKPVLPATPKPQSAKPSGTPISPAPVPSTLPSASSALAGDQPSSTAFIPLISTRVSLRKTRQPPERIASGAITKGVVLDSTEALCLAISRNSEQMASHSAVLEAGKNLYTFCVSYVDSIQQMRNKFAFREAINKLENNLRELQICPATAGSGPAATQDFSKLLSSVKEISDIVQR
T1 sequence (P02550 whole entry): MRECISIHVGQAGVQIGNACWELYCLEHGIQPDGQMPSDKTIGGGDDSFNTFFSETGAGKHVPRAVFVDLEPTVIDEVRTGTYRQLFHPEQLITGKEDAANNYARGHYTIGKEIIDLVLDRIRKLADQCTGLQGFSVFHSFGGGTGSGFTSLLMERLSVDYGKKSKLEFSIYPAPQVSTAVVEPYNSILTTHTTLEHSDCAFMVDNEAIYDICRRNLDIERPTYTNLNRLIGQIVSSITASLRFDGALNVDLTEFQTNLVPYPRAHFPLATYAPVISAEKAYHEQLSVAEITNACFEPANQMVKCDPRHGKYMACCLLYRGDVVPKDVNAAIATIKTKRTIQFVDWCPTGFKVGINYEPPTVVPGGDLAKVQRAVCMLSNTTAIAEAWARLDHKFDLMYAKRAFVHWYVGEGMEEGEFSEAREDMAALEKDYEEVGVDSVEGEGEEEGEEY
T1 sequence (P02554 whole entry): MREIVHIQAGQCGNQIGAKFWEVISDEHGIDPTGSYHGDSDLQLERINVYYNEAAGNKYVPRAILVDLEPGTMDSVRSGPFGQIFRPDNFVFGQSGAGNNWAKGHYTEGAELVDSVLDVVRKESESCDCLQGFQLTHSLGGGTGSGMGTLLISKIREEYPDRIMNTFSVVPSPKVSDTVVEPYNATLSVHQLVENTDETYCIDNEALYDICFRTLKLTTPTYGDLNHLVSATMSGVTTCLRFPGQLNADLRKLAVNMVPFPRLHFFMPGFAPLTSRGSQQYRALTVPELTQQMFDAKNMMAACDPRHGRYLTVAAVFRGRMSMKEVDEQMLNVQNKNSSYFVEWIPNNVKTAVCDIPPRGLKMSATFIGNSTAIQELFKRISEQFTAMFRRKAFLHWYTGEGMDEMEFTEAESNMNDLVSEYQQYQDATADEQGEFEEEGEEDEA
Chain of CSNK2A2 (CK2 alpha 2) (P19784 whole entry): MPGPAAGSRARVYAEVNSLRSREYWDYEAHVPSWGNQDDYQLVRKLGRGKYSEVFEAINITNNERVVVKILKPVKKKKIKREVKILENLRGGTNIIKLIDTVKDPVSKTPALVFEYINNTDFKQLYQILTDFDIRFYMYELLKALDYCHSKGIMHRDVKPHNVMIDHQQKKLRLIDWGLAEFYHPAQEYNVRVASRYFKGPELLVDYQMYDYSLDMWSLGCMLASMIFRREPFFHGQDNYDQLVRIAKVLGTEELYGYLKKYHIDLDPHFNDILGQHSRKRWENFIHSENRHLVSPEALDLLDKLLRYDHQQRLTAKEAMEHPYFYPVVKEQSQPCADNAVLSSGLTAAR
Chain of GRK6 (P43250 whole entry): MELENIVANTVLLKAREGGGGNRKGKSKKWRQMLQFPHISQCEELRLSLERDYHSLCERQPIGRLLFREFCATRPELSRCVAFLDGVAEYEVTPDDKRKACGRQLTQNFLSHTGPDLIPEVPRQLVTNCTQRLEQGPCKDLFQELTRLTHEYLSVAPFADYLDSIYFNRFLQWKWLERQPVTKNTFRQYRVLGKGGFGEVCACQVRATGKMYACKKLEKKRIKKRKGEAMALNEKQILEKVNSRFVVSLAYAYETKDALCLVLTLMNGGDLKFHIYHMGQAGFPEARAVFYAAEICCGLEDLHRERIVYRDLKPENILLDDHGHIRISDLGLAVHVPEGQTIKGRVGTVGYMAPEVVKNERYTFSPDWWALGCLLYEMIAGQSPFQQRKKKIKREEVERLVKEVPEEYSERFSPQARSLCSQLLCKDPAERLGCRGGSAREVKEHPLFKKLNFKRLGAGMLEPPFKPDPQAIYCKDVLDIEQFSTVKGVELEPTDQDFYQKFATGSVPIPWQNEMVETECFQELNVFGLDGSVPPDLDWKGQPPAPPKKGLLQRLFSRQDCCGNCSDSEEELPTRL
Chain of GSK3β (P49841 whole entry): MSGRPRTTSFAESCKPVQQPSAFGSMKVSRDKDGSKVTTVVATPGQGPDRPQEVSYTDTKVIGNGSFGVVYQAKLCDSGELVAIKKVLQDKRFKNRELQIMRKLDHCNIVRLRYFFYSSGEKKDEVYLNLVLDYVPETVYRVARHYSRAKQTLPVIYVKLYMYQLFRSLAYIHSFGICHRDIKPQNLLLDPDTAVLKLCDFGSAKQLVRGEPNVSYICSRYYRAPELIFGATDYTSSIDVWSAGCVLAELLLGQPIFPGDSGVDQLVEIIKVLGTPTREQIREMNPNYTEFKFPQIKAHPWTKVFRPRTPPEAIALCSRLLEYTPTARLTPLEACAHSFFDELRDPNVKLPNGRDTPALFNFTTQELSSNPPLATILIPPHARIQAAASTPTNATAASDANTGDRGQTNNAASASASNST
Chain of PLK2 (Q9NYY3 whole entry): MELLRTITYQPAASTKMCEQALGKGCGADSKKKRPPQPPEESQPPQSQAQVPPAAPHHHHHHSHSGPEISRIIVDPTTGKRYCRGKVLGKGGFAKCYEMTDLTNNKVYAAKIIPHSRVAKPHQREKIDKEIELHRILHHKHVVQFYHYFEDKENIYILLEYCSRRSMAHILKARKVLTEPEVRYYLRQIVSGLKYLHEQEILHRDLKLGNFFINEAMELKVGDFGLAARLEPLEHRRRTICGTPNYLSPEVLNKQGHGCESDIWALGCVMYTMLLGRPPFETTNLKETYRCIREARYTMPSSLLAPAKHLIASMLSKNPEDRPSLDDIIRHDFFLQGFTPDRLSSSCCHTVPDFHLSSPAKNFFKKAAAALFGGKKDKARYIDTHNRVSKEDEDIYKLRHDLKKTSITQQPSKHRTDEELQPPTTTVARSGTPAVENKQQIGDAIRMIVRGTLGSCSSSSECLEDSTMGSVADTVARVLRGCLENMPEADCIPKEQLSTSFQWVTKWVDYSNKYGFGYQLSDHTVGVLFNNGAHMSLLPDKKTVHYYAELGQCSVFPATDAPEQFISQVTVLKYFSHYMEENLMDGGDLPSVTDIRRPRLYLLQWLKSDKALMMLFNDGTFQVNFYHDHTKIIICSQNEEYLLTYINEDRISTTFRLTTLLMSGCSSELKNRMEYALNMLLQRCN

CN(c1ccccc1)c1nc(N)nc2[nH]c3cccc(Cl)c3c12 [AGN11]
IC50 (ABL1; ATP Km app 12 μM): 7.96 nM
IC50 (CSNK1A1 (CK1 alpha 1)): 30.5 nM
IC50 (CSNK2A2 (CK2 alpha 2)): > 1110 nM
IC50 (DYRK1A): 8.15 nM
IC50 (FYN; ATP Km app 85 μM): 888 nM
IC50 (GRK5): > 1110 nM
IC50 (GRK6): 614 nM
IC50 (GSK3β): 8.12 nM
IC50 (LARK2): 7.03 nM
IC50 (PLK2): > 370 nM
solubility (Solubility): 0.71 µM (≈ 0.23 µg/mL)
fraction unbound [1]: 0.004
fraction unbound [2]: 0.0022
fraction unbound [3]: 0.0008
CLint scaled [4]: 45.6 mL/min/kg
half-life [4]: 38.1 min
CLint scaled [5]: 602 mL/min/kg
half-life [5]: 10.1 min
Papp A→B (Permeability, MDC-MDR1): 4.97 ×10⁻⁶ cm/s
Papp B→A (Permeability, MDC-MDR1): 4.16 ×10⁻⁶ cm/s
Kp (in vivo; male, CD-1, mouse): 4.5
Kp uu at 2 h (in vivo; male, CD-1, mouse): 4.4
C0 (in vivo; male, CD-1, mouse, iv, 1 mg/kg): 529 ng/mL
CIobs (in vivo; male, CD-1, mouse, iv, 1 mg/kg): 120 mL/min/kg
Vss_obs (in vivo; male, CD-1, mouse, iv, 1 mg/kg): 2.41 L/kg
half-life (in vivo; male, CD-1, mouse, iv, 1 mg/kg): 19.4 min
AUC(0-t) (in vivo; male, CD-1, mouse, po, 1 mg/kg): 11 ng·h/mL
F (in vivo; male, CD-1, mouse, po, 1 mg/kg): 8.38%
Tmax (in vivo; male, CD-1, mouse, po, 1 mg/kg): 25 min
half-life (in vivo; male, CD-1, mouse, po, 1 mg/kg): 36 min
clinical symptoms during pharmacokinetic work (in vivo): no abnormal clinical symptoms were observed
fragmented and condensed Hoechst+ nuclei ([6]; 8 μM, fibril-treated group): reduced fragmented and condensed Hoechst^+ nuclei
impact on fragmented/condensed cell counts with nocodazole co-treatment ([6]; fibril groups, nocodazole 1 and 5 nM): prevented by both concentrations of nocodazole
appearance of βIII-tubulin+ structures after cold methanol fixation [7]: did not alter the appearance of βIII-tubulin^+ structures
correlation between insoluble α-synuclein and locomotor speed ([8]; 5 mg/kg): uncoupled the inverse correlation between insoluble α-synuclein and locomotor speed
hyperphosphorylation (pSer129) of insoluble α-synuclein, piriform cortex and amygdala ([8]; 5 mg/kg, six weeks, listed as AG161-47): modestly lowered; also recorded: reduced the hyperphosphorylation of insoluble α-synuclein
effect on Lewy-related pathology ([8]; 10 mg/kg, six weeks): too high to exert beneficial effects
bodyweight ([8]; daily tablets 5 or 10 mg/kg, six weeks, compared to placebo): No loss of bodyweight
acetylated, detyrosinated, or tyrosinated α-tubulin levels in whole-fraction OB/AON ([8]; immunoblotting, six weeks): virtually no net effect
α-synucleinopathic inclusion counts ([8]; piriform cortex sections, six weeks): does not affect α-synucleinopathic inclusion counts
locomotor activity in an open arena ([8]; six weeks after fibril infusions): reduced locomotor activity
other behavior measures (novel odor habituation, Y-maze, marble burying) ([8]; six weeks of daily tablets): no impact
in vitro assembly of porcine brain tubulin [9]: accelerated and amplified the net in vitro assembly of tubulin
microtubule effects in HeLa cells [10]: elicited both stabilization and relaxation of microtubules

epothilone
toxicity to primary hippocampal cultures [6]: toxic to primary hippocampal cultures at nanomolar concentrations; also recorded: also found to be toxic

COc1cc2ncnc(Nc3cccc(Cl)c3)c2cc1OC [Tyrphostin AG1478, reference compound]
IC50 (ABL1; representative value, ATP bin 10 μM, read-out: IC50 (nM) of Std inhibitor, ABL1): 326 nM
IC50 (FYN; representative value, ATP bin 75 μM, read-out: IC50 (nM) of Std inhibitor, FYN): 5300 nM

Cc1ccc(N(C)c2nc(N)nc3[nH]c4cccc(Cl)c4c23)cc1 [AGN5]
IC50 (ABL1; ATP Km app 12 μM): 26.1 nM
IC50 (CSNK1A1 (CK1 alpha 1)): 498 nM
IC50 (CSNK2A2 (CK2 alpha 2)): > 1110 nM
IC50 (DYRK1A): 249 nM
IC50 (FYN; ATP Km app 85 μM): 169 nM
IC50 (GRK5): > 370 nM
IC50 (GRK6): 64.3 nM
IC50 (GSK3β): 3.12 nM
IC50 (LARK2): 20 nM
IC50 (PLK2): 16.7 nM
solubility (Solubility): 1.75 µM (≈ 0.591 µg/mL)
fraction unbound [1]: 0.0022
fraction unbound [2]: < 0.0002
fraction unbound [3]: 0.0004
CLint scaled [4]: 44.7 mL/min/kg
half-life [4]: 38.9 min
CLint scaled [5]: 602 mL/min/kg
half-life [5]: 10.1 min
Papp A→B (Permeability, MDC-MDR1): 1.74 ×10⁻⁶ cm/s
Papp B→A (Permeability, MDC-MDR1): 2.98 ×10⁻⁶ cm/s
Kp (in vivo; male, CD-1, mouse): 5.99
Kp uu at 2 h (in vivo; male, CD-1, mouse): 6
C0 (in vivo; male, CD-1, mouse, iv, 1 mg/kg): 811 ng/mL
CIobs (in vivo; male, CD-1, mouse, iv, 1 mg/kg): 49.5 mL/min/kg
Vss_obs (in vivo; male, CD-1, mouse, iv, 1 mg/kg): 3.24 L/kg
half-life (in vivo; male, CD-1, mouse, iv, 1 mg/kg): 93 min
AUC(0-t) (in vivo; male, CD-1, mouse, po, 1 mg/kg): 19.2 ng·h/mL
Cmax (in vivo; male, CD-1, mouse, po, 1 mg/kg): 14.7 ng/mL and 44 nM
F (in vivo; male, CD-1, mouse, po, 1 mg/kg): 6.35%
Tmax (in vivo; male, CD-1, mouse, po, 1 mg/kg): 30 min
half-life (in vivo; male, CD-1, mouse, po, 1 mg/kg): 46.8 min
clinical symptoms during pharmacokinetic work (in vivo): no abnormal clinical symptoms were observed
in vitro assembly of porcine brain tubulin [9]: accelerate the temporal kinetics of porcine brain tubulin in vitro assembly

COC(=O)Nc1nc2ccc(C(=O)c3cccs3)cc2[nH]1 [nocodazole]
number of viable Hoechst+ cells ([6]; fibrils, escalating AG161-47 up to 8 μM, nocodazole 1 and 5 nM, 10 days): no statistically significant changes
toxicity to primary hippocampal cultures [6]: also found to be toxic
acetylated (stable) α-tubulin levels [11]: raised the levels of acetylated (stable) α-tubulin
appearance of βIII-tubulin+ structures after cold methanol fixation [7]: neurotoxicity and severe beading of axonal microtubules

Brc1c(Br)c(Br)c2n[nH]nc2c1Br [TBB, reference compound]
IC50 (CSNK1A1 (CK1 alpha 1); representative value, ATP bin 5 μM, read-out: IC50 (nM) of Std inhibitor, CSNK1A1 (CK1 alpha 1)): 12600 nM
